In brackets after ≈: the same amount, converted by molar mass.
Assays:
[1] = biological target: Receptor tyrosine-protein kinase erbB-2 (Homo sapiens, UniProt P04626)
Description: Inhibition of human epidermal growth factor receptor-2 autophosphorylation

SW-620 = experiment: cells; assay type: functional, cell-based; settings: Homo sapiens
Description: Inhibition of SW-620 cell proliferation

A-431 = experiment: cells; assay type: functional, cell-based; settings: Homo sapiens
Description: Inhibition of A431 cell proliferation

[2] = biological target: Epidermal growth factor receptor (Homo sapiens, UniProt P00533)
Description: Inhibition of Epidermal Growth Factor Receptor (EGFR) autophosphorylation

SK-BR-3 = experiment: cells; assay type: functional, cell-based; settings: Homo sapiens
Description: Inhibition of SKBR-3 cell proliferation

Sequence of Receptor tyrosine-protein kinase erbB-2 (P04626 whole entry): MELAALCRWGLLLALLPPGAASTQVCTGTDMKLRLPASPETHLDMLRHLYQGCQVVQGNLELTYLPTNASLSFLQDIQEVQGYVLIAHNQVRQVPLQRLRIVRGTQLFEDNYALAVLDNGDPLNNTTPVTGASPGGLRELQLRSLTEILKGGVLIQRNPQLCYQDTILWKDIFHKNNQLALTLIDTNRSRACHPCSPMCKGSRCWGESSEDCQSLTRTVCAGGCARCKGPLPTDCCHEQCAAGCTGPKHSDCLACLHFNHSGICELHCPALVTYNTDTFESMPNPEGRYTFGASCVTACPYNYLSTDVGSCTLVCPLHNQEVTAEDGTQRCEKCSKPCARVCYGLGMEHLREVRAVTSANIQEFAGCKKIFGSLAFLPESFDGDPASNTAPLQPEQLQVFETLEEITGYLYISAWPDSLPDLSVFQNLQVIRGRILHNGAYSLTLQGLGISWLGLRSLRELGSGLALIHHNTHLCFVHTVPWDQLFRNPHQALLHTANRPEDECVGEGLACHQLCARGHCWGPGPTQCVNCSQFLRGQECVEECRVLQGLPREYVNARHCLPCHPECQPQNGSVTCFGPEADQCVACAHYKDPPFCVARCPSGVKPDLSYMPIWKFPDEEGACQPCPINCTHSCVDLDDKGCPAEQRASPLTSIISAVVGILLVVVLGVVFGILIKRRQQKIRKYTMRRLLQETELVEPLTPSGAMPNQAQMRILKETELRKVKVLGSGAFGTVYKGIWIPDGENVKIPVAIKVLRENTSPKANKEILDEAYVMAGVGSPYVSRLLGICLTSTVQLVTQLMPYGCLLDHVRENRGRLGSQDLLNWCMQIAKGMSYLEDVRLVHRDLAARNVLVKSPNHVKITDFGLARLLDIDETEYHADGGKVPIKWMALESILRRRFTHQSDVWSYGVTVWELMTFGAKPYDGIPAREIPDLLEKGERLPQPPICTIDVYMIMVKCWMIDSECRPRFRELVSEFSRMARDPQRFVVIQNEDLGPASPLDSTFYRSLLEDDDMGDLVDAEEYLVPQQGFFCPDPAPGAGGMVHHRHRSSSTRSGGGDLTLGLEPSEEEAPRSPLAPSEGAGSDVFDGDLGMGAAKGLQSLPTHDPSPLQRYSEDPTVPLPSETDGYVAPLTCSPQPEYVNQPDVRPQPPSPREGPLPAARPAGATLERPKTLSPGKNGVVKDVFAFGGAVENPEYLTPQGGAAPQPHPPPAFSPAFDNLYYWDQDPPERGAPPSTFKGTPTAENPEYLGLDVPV
Sequence of Epidermal growth factor receptor (P00533 whole entry): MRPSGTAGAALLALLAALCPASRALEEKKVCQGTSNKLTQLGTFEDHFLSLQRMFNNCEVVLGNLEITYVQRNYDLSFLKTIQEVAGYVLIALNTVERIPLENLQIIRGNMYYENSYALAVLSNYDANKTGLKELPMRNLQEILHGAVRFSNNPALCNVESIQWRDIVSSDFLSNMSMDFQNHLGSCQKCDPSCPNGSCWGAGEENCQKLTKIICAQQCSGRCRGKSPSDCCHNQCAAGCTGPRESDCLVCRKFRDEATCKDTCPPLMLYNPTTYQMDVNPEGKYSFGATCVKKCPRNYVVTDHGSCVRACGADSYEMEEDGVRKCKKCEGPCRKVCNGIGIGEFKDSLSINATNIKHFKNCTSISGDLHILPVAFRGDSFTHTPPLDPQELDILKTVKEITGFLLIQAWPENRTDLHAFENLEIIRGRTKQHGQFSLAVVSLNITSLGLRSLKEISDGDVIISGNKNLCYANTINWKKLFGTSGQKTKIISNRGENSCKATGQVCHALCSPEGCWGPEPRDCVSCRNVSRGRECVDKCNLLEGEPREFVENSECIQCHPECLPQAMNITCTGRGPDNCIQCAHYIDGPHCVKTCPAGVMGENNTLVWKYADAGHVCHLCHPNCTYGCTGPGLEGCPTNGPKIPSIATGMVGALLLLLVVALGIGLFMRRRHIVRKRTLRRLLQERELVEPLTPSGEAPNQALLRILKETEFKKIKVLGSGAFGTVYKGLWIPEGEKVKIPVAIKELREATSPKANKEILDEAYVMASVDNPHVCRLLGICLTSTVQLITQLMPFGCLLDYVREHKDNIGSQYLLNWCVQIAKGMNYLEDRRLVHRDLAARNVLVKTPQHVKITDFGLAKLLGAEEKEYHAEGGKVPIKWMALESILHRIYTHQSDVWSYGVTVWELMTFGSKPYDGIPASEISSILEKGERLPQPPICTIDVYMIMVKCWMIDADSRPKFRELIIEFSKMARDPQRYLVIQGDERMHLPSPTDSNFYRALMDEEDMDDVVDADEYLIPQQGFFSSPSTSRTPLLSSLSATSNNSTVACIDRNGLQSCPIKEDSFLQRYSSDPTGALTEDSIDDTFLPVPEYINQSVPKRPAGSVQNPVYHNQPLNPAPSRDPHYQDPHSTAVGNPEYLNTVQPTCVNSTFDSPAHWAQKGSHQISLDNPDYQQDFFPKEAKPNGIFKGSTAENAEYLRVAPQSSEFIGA

Structure (SMILES) | IC50 [1] [µM] | IC50 (SW-620) [µg/mL] | IC50 (A-431) [µg/mL] | IC50 [2] [µM] | IC50 (SK-BR-3) [µg/mL]
C#Cc1cccc(Nc2c(C#N)cnc3cc(OCCOC)c(OCCOC)cc23)c1 | 11.8 | 0.68 (≈ 1.63 µM) | 0.173 (≈ 0.414 µM) | 0.85 | 0.071 (≈ 0.17 µM)
C=CC(=O)Nc1cc2c(Nc3ccc(F)c(Cl)c3)c(C#N)cnc2cc1OCCCN1CCOCC1 | 1.69 | 0.77 (≈ 1.51 µM) | 0.12 (≈ 0.235 µM) | 0.08 | 0.03 (≈ 0.0588 µM)
COc1cc2ncc(C#N)c(Nc3ccc(F)c(Cl)c3)c2cc1OCCCN1CCOCC1 | 14.7 | > 5 | 0.25 (≈ 0.531 µM) | 1.04 | 0.332 (≈ 0.705 µM)
C=CC(=O)Nc1cc2c(Nc3ccc(F)c(Cl)c3)ncnc2cc1OCCCN1CCOCC1 [CANERTINIB] |  | 1.45 (≈ 2.98 µM) | 0.083 (≈ 0.171 µM) |  | 0.102 (≈ 0.21 µM)
CCOc1cc2ncc(C#N)c(Nc3ccc(F)c(Cl)c3)c2cc1NC(=O)/C=C/CN(C)C [PELITINIB] | 1.23 | 0.317 (≈ 0.677 µM) | 0.03 (≈ 0.0641 µM) |  | 0.007 (≈ 0.015 µM)

Source: ChEMBL document CHEMBL1135208, “Syntheses and EGFR and HER-2 kinase inhibitory activities of 4-anilinoquinoline-3-carbonitriles: analogues of three important 4-anilinoquinazolines currently undergoing clinical evaluation as therapeutic antitumor agents” (Bioorg Med Chem Lett, 2002)
